Consider 1 compound from patent publication US6417235B2, “Method and use of α-amino-β-mercapto-ethane derivatives as dicarbonyl scavengers for treatment of conditions resulting from protein, lipid, and DNA damage” (University of Kentucky Research Foundation, priority 2000, dated 2002).

For assay [1], the system named is glycation of histone H1 by ADP-ribose. Description: Screening of inhibitors of nonoxidative advanced glycation: AGE-fluorescence on 96 well-microtiter plate. Conditions: (± SEM, n = 2); for AGE-fluorescence (day 5): complete reaction under air. The format is biochemical, calf. The procedure:
All operations were carried out at 4° C. Chromatin was isolated from fresh calf thymus by extraction with 0.14 M NaCl, 0.05 M Na2S2O5, as described earlier in Wondrak supra. After repeated extraction with 5% HCl)4 and centrifugation (1500 g), histone H1 was precipitated from the supernatant by addition of TCA (20% final concentration v/v). The histone H1 precipitate was colleted by centrifugation (12,000 g) and deionized water. After extensive dialysis (MW cut-off: 12,000-14,000) against water for 48 h, the sample was lyophilized and the protein was stored at 4° C. SDS-PAGE (12%) was used to analyze the purity of the preparation.
Earlier studies have reported that D-penicillamine inhibits collagen crosslinking and AGE fluorescence caused by sugars (McPherson, J. D., Shilton, B. H., and Walton, D. J. 1988. Role of Fructose in Glycation and Cross-Linking of Proteins. Biochemistry 27, 1901-1907) and reaction of D-penicillamine with aldehyde groups of proteins (Deshmukh, K., and Nimm, M. E. 1969. A Defect in the Intramolecular and Intermolecular Cross-linking of Collagen caused by Penicillamine. J. Biol. Chem. 244, 1787-1795). A number of different penicillamines and penicillamine derivatives were tested to determine the inhibition of AGE-fluorescence on histone H1 at physiological pH. The reaction conditions for the glycation of histone H1 by ADP-ribose mimic physiological conditions to the extent possible. Reaction mixtures contain 1.5 mg/ml histone Hl, 1.0 mM ADP-ribose, 50 mM potassium phosphate buffer, pH 7.4, 37° C. D,L-penicillamine; L-penicillamine; D-penicllamine; D-penicillaminedisulfide and N,S- isopropylidine-D-penicillamine were tested in concentrations of 1,5 and 10 mM. The detected reaction parameter representing the accumulation of protein damage is AGE-fluorescence ((λex=[…]), which is suppressed by the presence of a compound with inhibitory activity. Generation of AGE-type fluorescence (λex=355 nm; λem=405 nm) was monitored over time at 37° C; which is in the range of the broad excitation/emission maxima of AGE compounds. To allow high throughput sample processing on 96 well microtiter plates, the reaction volumes are 300 μl. Fluorescence on the 96-well microtiter plates was measured using an automated microtiter fluorescence reader. Fluorescence of the 1 ml samples of the glycation reaction mixtures was measured using a Hitachi F-200 fluorescence spectophotometer, and prior to measurement the protein sample is dialyzed extensively against water (MW cutoff=[…]), lyophilized and reconstituted in reaction buffer. For inhibitor screening the plate is read on a Fluoroskan II plate reader (Titertek, ICN) at the excitation/emission wavelengths set forth above at a bandwidth of 35 nm.
The following screening scheme is used (see Table 1): AGE-fluorescence is determined at the beginning and after five days of incubation. Test compounds that are inherently fluorescent (designated false negatives) were identified by the initial fluorescence measurement (See Table 1, NADH for example). Since these are compounds of uncertain activity, they are diverted directly to the second stage of the screen. Aminoguanidine, a known glycation inhibitory agent, was used as a positive control for suppression of the increase on AGE-fluorescence. After five days incubation and plate reading, fluorescence quenchers (designated false positives) are excluded by measuring the quenching activity of the test compound by addition of AGE modified protein having known fluorescence activity to one microtiter plate well containing test compound in the complete reaction mixture. For this, AGE-BSA is used as the AGE-type fluorescence standard. This AGE-BSA test excludes false positives compounds that function by fluorescence quenching. If fluorescence quenching occurs the test compound is excluded from further screening. […] The protein is visualized by silver staining of the gel. […]

For another assay, the system named is CF-3 cells. Description: Protection of fibroblasts from alpha-dicarbonyl stress (cell count after 72 hour exposure). It counts as cell-based, human. The conditions noted are these: FIG. 14. The procedure:
(§1) A continuous cell line of human epidermal keratinocytes (HaCat cells) and human dermal fibroblasts (CF-3 cells) were routinely cultured in 75 cm^2 flasks and split biweekly in DMEM containing 10% fetal bovine serum and kept in a humidified atmosphere containing 5% CO2 at 37° C. Human keratinocytes were split using 5% trypsin and human fibroblasts employed 1% trypsin. All experiments were carried out on 6 well dishes (Falcon USA), where keratinocytes were seeded at 2×10^4 cells/well and fibroblasts at 4×10^4 cells/well. Cells were left overnight to attach to the plate and the appropriate carbonyl scavenger was then added 15 minutes prior to the addition of the alpha-dicarbonyl stress compounds glyoxal or methylglyoxal. Following 72 hour exposure to the stress compound, cells were counted with a Coulter counter. the protective effects of the alpha-dicarbonyl scavengers were assessed by comparing the growth of untreated cells with cells exposed to alpha-carbonyl stress +/− test compound.

Another assay has as its system HaCat cells. Description: Protection of keratinocytes from alpha-dicarbonyl stress (cell count after 72 hour exposure). The format is cell-based, human. The conditions noted are these: FIG. 14. The procedure:
as §1

The test system of a further assay is histone H1. Description: Histone H1 crosslinking by 12% SDS-PAGE with silver staining. It counts as biochemical, calf. Conditions: 5 mM; histone H1, ADP-ribose reaction system. The procedure:
The following screening scheme is used (see Table 1): AGE-fluorescence is determined at the beginning and after five days of incubation. Test compounds that are inherently fluorescent (designated false negatives) were identified by the initial fluorescence measurement (See Table 1, NADH for example). Since these are compounds of uncertain activity, they are diverted directly to the second stage of the screen. Aminoguanidine, a known glycation inhibitory agent, was used as a positive control for suppression of the increase on AGE-fluorescence. After five days incubation and plate reading, fluorescence quenchers (designated false positives) are excluded by measuring the quenching activity of the test compound by addition of AGE modified protein having known fluorescence activity to one microtiter plate well containing test compound in the complete reaction mixture. For this, AGE-BSA is used as the AGE-type fluorescence standard. This AGE-BSA test excludes false positives compounds that function by fluorescence quenching. If fluorescence quenching occurs the test compound is excluded from further screening. […] The protein is visualized by silver staining of the gel. […] A compound that passes the first and second stage of the screen is considered a glycation inhibitor and is further evaluated for biological activity as described below. […]

Molecules are shown by their SMILES.

Regarding `N=C(N)NN` [Aminoguanidine], the “AGE-fluorescence (day 0)” value in assay [1] (compound 1 mM) is 1.2 (0.1) relative units; in assay [1] (compound 5 mM), 1.2 (0.1) relative units; in assay [1] (compound 10 mM) it was 1.3 (0.1) relative units. In addition, the “AGE-fluorescence (day 5)” value in assay [1] (compound 1 mM) is 4.3 (0.2) relative units; in assay [1] (compound 5 mM), 2.0 (0.0) relative units; in assay [1] (compound 10 mM), 1.8 (0.0) relative units. Besides, the “protection from alpha-dicarbonyl stress” value in the assay with CF-3 cells and with HaCat cells was “protection” throughout. In addition, the “inhibition of histone H1 crosslinking” value with histone H1 is “inhibit histone H1 crosslinking”.
